Results published in ChEMBL document CHEMBL3045832, “3-Aryl-2-{4-[4-(2,4-dioxothiazolidin-5-ylmethyl)phenoxy]-phenyl}-acrylic acid alkyl ester: synthesis and antihyperglycemic evaluation” (2011).

Experiments:
Type in all cases: functional
Set-up in all cases: scale not given: the % may be the effect or the level left
Rattus norvegicus [1] = assay: Antihyperglycemic activity in streptozotocin-induced Rattus norvegicus Wistar (rat) diabetic model assessed as reduction in plasma glucose level at 25 umol/kg, po for 15 measured after treatment
Rattus norvegicus [2] = assay: Antihyperglycemic activity in streptozotocin-induced Rattus norvegicus Wistar (rat) diabetic model assessed as reduction in plasma glucose level at 20 umol/kg, po for 9 weeks measured on day 7
Rattus norvegicus [3] = assay: Antihyperglycemic activity in streptozotocin-induced Rattus norvegicus Wistar (rat) diabetic model assessed as reduction in plasma glucose level at 20 umol/kg, po for 9 weeks measured at 3 day
Rattus norvegicus [4] = assay: Antihyperglycemic activity in streptozotocin-induced Rattus norvegicus Wistar (rat) diabetic model assessed as reduction in plasma glucose level at 15 umol/kg, po for 9 weeks measured at 15 day
Rattus norvegicus [5] = assay: Antihyperglycemic activity in streptozotocin-induced Rattus norvegicus Wistar (rat) diabetic model assessed as reduction in plasma glucose level at 15 umol/kg, po for 9 weeks measured on day 7
Rattus norvegicus [6] = assay: Antihyperglycemic activity in streptozotocin-induced Rattus norvegicus Wistar (rat) diabetic model assessed as reduction in plasma glucose level at 15 umol/kg, po for 9 weeks measured at 10 day
Rattus norvegicus [7] = assay: Antihyperglycemic activity in streptozotocin-induced Rattus norvegicus Wistar (rat) diabetic model assessed as reduction in plasma glucose level at 15 umol/kg, po for 9 weeks measured at 3 day
Rattus norvegicus [8] = assay: Antihyperglycemic activity in streptozotocin-induced Rattus norvegicus Wistar (rat) diabetic model assessed as reduction in plasma glucose level at 25 umol/kg, po for 9 weeks measured at 15 day
Rattus norvegicus [9] = assay: Antihyperglycemic activity in streptozotocin-induced Rattus norvegicus Wistar (rat) diabetic model assessed as reduction in plasma glucose level at 30 umol/kg, po for 9 weeks measured at 15 day
Rattus norvegicus [10] = assay: Antihyperglycemic activity in streptozotocin-induced Rattus norvegicus Wistar (rat) diabetic model assessed as reduction in plasma glucose level at 30 umol/kg, po for 9 weeks measured at 10 day
Rattus norvegicus [11] = assay: Antihyperglycemic activity in streptozotocin-induced Rattus norvegicus Wistar (rat) diabetic model assessed as reduction in plasma glucose level at 30 umol/kg, po for 9 weeks measured on day 7
Rattus norvegicus [12] = assay: Antihyperglycemic activity in streptozotocin-induced Rattus norvegicus Wistar (rat) diabetic model assessed as reduction in plasma glucose level at 25 umol/kg, po for 9 weeks measured at 10 day
Rattus norvegicus [13] = assay: Antihyperglycemic activity in streptozotocin-induced Rattus norvegicus Wistar (rat) diabetic model assessed as reduction in plasma glucose level at 30 umol/kg, po for 9 weeks measured at 3 day
Rattus norvegicus [14] = assay: Antihyperglycemic activity in streptozotocin-induced Rattus norvegicus Wistar (rat) diabetic model assessed as reduction in plasma glucose level at 25 umol/kg, po for 9 weeks measured on day 7
Rattus norvegicus [15] = assay: Antihyperglycemic activity in streptozotocin-induced Rattus norvegicus Wistar (rat) diabetic model assessed as reduction in plasma glucose level at 25 umol/kg, po for 9 weeks measured at 3 day
Rattus norvegicus [16] = assay: Antihyperglycemic activity in streptozotocin-induced Rattus norvegicus Wistar (rat) diabetic model assessed as reduction in plasma glucose level at 20 umol/kg, po for 9 weeks measured at 15 day
Rattus norvegicus [17] = assay: Antihyperglycemic activity in streptozotocin-induced Rattus norvegicus Wistar (rat) diabetic model assessed as reduction in plasma glucose level at 20 umol/kg, po for 9 weeks measured at 10 day

SMILES	Activity (Rattus norvegicus [1])	also measured
CCOC(=O)/C(=C/c1ccc(OC)c(OC)c1)c1ccc(Oc2ccc(CC3SC(=O)NC3=O)cc2)cc1 (stereo not given)	37.15%	–
CCOC(=O)/C(=C/c1ccc(Br)cc1)c1ccc(Oc2ccc(CC3SC(=O)NC3=O)cc2)cc1 (stereo not given)	13.63%	–
CCCOC(=O)/C(=C/c1ccc(Br)cc1)c1ccc(Oc2ccc(CC3SC(=O)NC3=O)cc2)cc1 (stereo not given)	13.42%	–
COC(=O)/C(=C/c1ccccc1)c1ccc(Oc2ccc(CC3SC(=O)NC3=O)cc2)cc1 (stereo not given)	10.74%	–
CCOC(=O)/C(=C/c1ccccc1)c1ccc(Oc2ccc(CC3SC(=O)NC3=O)cc2)cc1 (stereo not given)	9.8%	–
CCCOC(=O)/C(=C/c1ccccc1)c1ccc(Oc2ccc(CC3SC(=O)NC3=O)cc2)cc1 (stereo not given)	8.6%	–
COC(=O)/C(=C/c1ccc(OC)cc1)c1ccc(Oc2ccc(CC3SC(=O)NC3=O)cc2)cc1 (stereo not given)	16.3%	–
CCOC(=O)/C(=C/c1ccc(OC)cc1)c1ccc(Oc2ccc(CC3SC(=O)NC3=O)cc2)cc1 (stereo not given)	14.61%	–
CCCOC(=O)/C(=C/c1ccc(OC)cc1)c1ccc(Oc2ccc(CC3SC(=O)NC3=O)cc2)cc1 (stereo not given)	13%	–
COC(=O)/C(=C/c1ccc(OC)cc1OC)c1ccc(Oc2ccc(CC3SC(=O)NC3=O)cc2)cc1 (stereo not given)	46.13%	–
CCOC(=O)/C(=C/c1ccc(OC)cc1OC)c1ccc(Oc2ccc(CC3SC(=O)NC3=O)cc2)cc1 (stereo not given)	46.03%	–
CCCOC(=O)/C(=C/c1ccc(OC)cc1OC)c1ccc(Oc2ccc(CC3SC(=O)NC3=O)cc2)cc1 (stereo not given)	45.91%	–
COC(=O)/C(=C/c1ccc(OC)c(OC)c1)c1ccc(Oc2ccc(CC3SC(=O)NC3=O)cc2)cc1 (stereo not given)	38.11%	–
CCCOC(=O)/C(=C/c1ccc(OC)c(OC)c1)c1ccc(Oc2ccc(CC3SC(=O)NC3=O)cc2)cc1 (stereo not given)	35.85%	–
COC(=O)/C(=C/c1cccc(OC)c1OC)c1ccc(Oc2ccc(CC3SC(=O)NC3=O)cc2)cc1 (stereo not given)	37.05%	–
CCCOC(=O)/C(=C/c1cccc(OC)c1OC)c1ccc(Oc2ccc(CC3SC(=O)NC3=O)cc2)cc1 (stereo not given)	37.24%	Activity (Rattus norvegicus [2]): 14.56%; Activity (Rattus norvegicus [3]): 10.91%; Activity (Rattus norvegicus [4]): 18.47%; Activity (Rattus norvegicus [5]): 11.49%; Activity (Rattus norvegicus [6]): 15.53%; Activity (Rattus norvegicus [7]): 8.38%; Activity (Rattus norvegicus [8]): 37.24%; Activity (Rattus norvegicus [9]): 35.47%; Activity (Rattus norvegicus [10]): 24.68%; Activity (Rattus norvegicus [11]): 20.87%; Activity (Rattus norvegicus [12]): 25.53%; Activity (Rattus norvegicus [13]): 19.42%; Activity (Rattus norvegicus [14]): 21.34%; Activity (Rattus norvegicus [15]): 18.06%; Activity (Rattus norvegicus [16]): 21.76%; Activity (Rattus norvegicus [17]): 17.26%
COC(=O)/C(=C/c1ccc(O)cc1)c1ccc(Oc2ccc(CC3SC(=O)NC3=O)cc2)cc1 (stereo not given)	18.81%	–
CCOC(=O)/C(=C/c1ccc(O)cc1)c1ccc(Oc2ccc(CC3SC(=O)NC3=O)cc2)cc1 (stereo not given)	18.16%	–
CCCOC(=O)/C(=C/c1ccc(O)cc1)c1ccc(Oc2ccc(CC3SC(=O)NC3=O)cc2)cc1 (stereo not given)	17.48%	–
COC(=O)/C(=C/c1ccc([N+](=O)[O-])cc1)c1ccc(Oc2ccc(CC3SC(=O)NC3=O)cc2)cc1 (stereo not given)	13.26%	–
CCOC(=O)/C(=C/c1ccc([N+](=O)[O-])cc1)c1ccc(Oc2ccc(CC3SC(=O)NC3=O)cc2)cc1 (stereo not given)	13.4%	–
CCCOC(=O)/C(=C/c1ccc([N+](=O)[O-])cc1)c1ccc(Oc2ccc(CC3SC(=O)NC3=O)cc2)cc1 (stereo not given)	12.45%	–
COC(=O)/C(=C/c1ccc(Br)cc1)c1ccc(Oc2ccc(CC3SC(=O)NC3=O)cc2)cc1 (stereo not given)	15.58%	–
CN(CCOc1ccc(CC2SC(=O)NC2=O)cc1)c1ccccn1 (stereo not given) [ROSIGLITAZONE]	56.73%	–
